Source: patent US20260098017A1, “NOVEL AROMATIC RING DERIVATIVE CONTAINING AMIDE SUBSTITUTION AND USE THEREOF” (TIANJIN PHARMACEUTICAL BIOTECHNOLOGY CO., LTD., priority 2022, published 2026)

How the values were obtained:
JAK2 JH1 kinase = JAK2 JH1 kinase (Homo sapiens, UniProt O60674); test: JAK2 JH1 enzyme assay in vitro (TR-FRET); type: biochemical; conditions: read-out: JAK 2 JH1 IC50
SD rats = test: Four-week repeat-dose toxicity study in rats; type: in vivo; conditions: rat, 28 days, 2% cream 500 mg bid topical, 100 mg/kg
Method: Each group contained 10 animals, with an equal number of males and females.
The treatment lasted for four consecutive weeks (28 days).
• Daily clinical observation and body weight measurement; • After the last administration, rats were fasted for more than 16 h, anesthetized on the next day, and blood was collected from abdominal aorta. Tests such as hematology (EDTA-2K anticoagulation), blood biochemistry (serum), coagulation function (separated plasma with sodium citrate anticoagulation) and the like were respectively carried out; • After euthanization of the animals, the tissue organs were dissected and observed in general, and organ weights and coefficients (heart, liver, spleen, kidney, thymus) were determined; • The skin and lung tissues of the administration site were taken for HE staining to observe the changes in epidermal thickness, dermal inflammatory cells and pulmonary lesions.

[1] = system: imiquimod-induced mouse psoriasis-like model; test: Imiquimod-induced mouse psoriasis-like model (PASI score); type: in vivo; conditions: oral gavage, 10 mg/kg, 25 mg/kg, 50 mg/kg, bid, compared with the model group
JAK1 JH2 pseudokinase = JAK1 JH2 pseudokinase (Homo sapiens, UniProt P23458); test: JAK1 JH2 enzyme binding assay in vitro (TR-FRET); conditions: read-out: JAK 1 JH2 IC50
JAK1 JH2 pseudokinase, sequence (P23458 583-855 limits assumed): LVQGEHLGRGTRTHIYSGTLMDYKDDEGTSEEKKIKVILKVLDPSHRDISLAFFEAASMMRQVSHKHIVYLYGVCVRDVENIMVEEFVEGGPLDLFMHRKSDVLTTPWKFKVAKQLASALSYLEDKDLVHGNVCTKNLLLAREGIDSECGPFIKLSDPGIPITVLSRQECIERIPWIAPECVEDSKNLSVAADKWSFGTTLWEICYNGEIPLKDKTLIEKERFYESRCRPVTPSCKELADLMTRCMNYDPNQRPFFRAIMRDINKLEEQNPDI
Method: Instrumentation: Envision microplate reader (PerkinElmer), Echo (LABCYTE)
Method: in this experiment, the inhibitory effects of compounds on JAK1 JH2 pseudokinase was tested using time-resolved fluorescence resonance energy transfer (TR-FRET) method.
Procedure: compounds were prepared into 10 mM stock solutions using DMSO, which were further diluted into compound dilutions with different concentration gradients in DMSO, and the compound dilutions with 200× final concentration were transferred to a 384-well assay plate using an Echo instrument. The preparation of the following 1× assay working solution: HEPES pH7.5 at a final concentration of 20 mM, MgCl2 at a final concentration of 10 mM, Brij-35 at a final concentration of 0.015%, DTT at a final concentration of 2 mM, BSA at a final concentration of 50 ug/mL. JAK1 JH2 pseudokinase with 3× final concentration, Tb antibody and Tracer were prepared using their respective 1× working solution. 5 uL of JAK1 JH2 pseudokinase was added to a 384-well assay plate, and centrifuged at 1000 rpm for 30 s. 5 uL of Tb antibody was added to the 384-well assay plate, and centrifuged at 1000 rpm for 30 s. 5 uL of Tracer was added to the 384-well assay plate, and centrifuged at 1000 rpm for 30 s. Incubation was performed at room temperature for 60 min, and then at 4° C. overnight. Finally, the 495 nm/520 nm fluorescence signal ratio was measured using the Envision microplate reader (PerkinElmer).
Data Analysis: XLfit, a software developed by IDBS and integrated into the Microsoft Excel environment, was used to process and analyze the test data. […] Thereafter, the concentration and corresponding inhibition rate data were imported into the XLfit software, and the Dose Response One Site 205 model within the software was employed to fit the inhibition rate-concentration curve by four-parameter method, and the IC50 value of the compound was calculated.

JAK2 JH1 kinase, sequence (O60674 849-1124 limits assumed): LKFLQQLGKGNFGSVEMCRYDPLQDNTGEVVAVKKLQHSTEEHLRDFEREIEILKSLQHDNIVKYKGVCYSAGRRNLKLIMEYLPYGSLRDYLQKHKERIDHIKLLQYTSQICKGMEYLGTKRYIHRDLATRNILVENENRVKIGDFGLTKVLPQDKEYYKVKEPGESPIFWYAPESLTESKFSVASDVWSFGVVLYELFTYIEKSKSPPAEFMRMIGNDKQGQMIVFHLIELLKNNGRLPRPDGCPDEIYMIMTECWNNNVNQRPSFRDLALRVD

[2H]C([2H])([2H])NC(=O)c1nnc(NC(=O)C2CC2)cc1Nc1cccc(C(=O)Nc2cccc(C)c2)c1OC [Example 3]
IC50 (JAK2 JH1 kinase): > 10 µM | Effects on general state, body weight, organ coefficient, skin and pulmonary pathology, and other hematological, coagulation and blood biochemical indicators (SD rats): no significant effects | Hematology Gran (SD rats): 1.7 ± 1.0 ×10^9/L | Hematology Lymph (SD rats): 6.4 ± 2.7 ×10^9/L | Hematology Mono (SD rats): 0.2 ± 0.1 ×10^9/L | Hematology PLT (SD rats): 1001.8 ± 408.1 ×10^9/L | Improvement of psoriasis symptoms by oral administration [1]: effectively improve psoriasis symptoms | IC50 (JAK1 JH2 pseudokinase): 9.74 nM
